Each structure is given as a SMILES string. A value given as a limit tells only on which side of the number the result lay.

The values that follow come from a melting point compilation (Tetko et al.; mined from patent text by program, amines drawn as free bases though some values may be those of a salt).

`CCCCCCCCCCNC(=O)Nc1ccccc1C(=O)NC1CCN(C(c2ccccc2)c2ccccc2)CC1`: the melting point fell in the range of 204 to 206 °C. The compound `C=Cc1ccc(-c2ncccc2S(=O)(=O)Nc2ncc(C)nc2OC)cc1` showed a melting point of 110 to 112 °C. As for `CCC(=O)Oc1ccc(C#N)cc1`, the figure is 44 to 46 °C; as for `O=C(O)c1ccc(COCc2csc3nc(C(=O)NCc4cccc(OC(F)(F)F)c4)[nH]c(=O)c23)cc1`, 248 to 250 °C; as for `O=[N+]([O-])c1ccc(C=Nc2c3c(nc4ccccc24)CCCC3)cc1`, 237 to 238 °C. In turn, `CCn1c(=O)c2[nH]c(/C=C/c3cc(C)c(OC)cc3C)nc2n(CC)c1=O` returned a melting point greater than 280 °C. For the compound `CCOC(C)C(=O)c1cc(C(C)(C)C)c(O)c(C(C)(C)C)c1` (centres undefined), the melting point was determined as 64 °C. For `COc1ccc(Cc2cnc(N)nc2N)cc1`, the melting point fell in the range of 206 to 209 °C. The figure for `COc1cc(C(CCl)(OC)OC)ccc1OS(=O)(=O)c1ccccc1` is 130 °C; for `Cn1nc(Sc2ccc(C(=O)O)c(Cl)c2)n(C)c1=O` it is 222 °C. `O=c1c2cc(F)c(N3CCCC3)nc2n(Cc2ccccc2)c(=O)n1O` registered a melting point of 219 to 220 °C. The figure for `Cn1cncc1C(O)(c1ccc(Cl)cc1)c1ccc2c(c1)C(c1cccc(Cl)c1)SCC(=O)N2CC1CC1` (centres undefined) is 245 °C; for `CC(O)Cn1nc(-c2cnc3[nH]cc(C(=O)NC(C)C(=O)N4CC(C#N)C4)c3n2)c2ccc(Cl)cc21` (centres undefined) it is 160 to 165 °C; for `O=C(NCC(F)(F)F)C1CC(=O)N(Cc2ccccc2)C1` (centres undefined) it is 110 to 112 °C.

Turning to `COc1cc(C)c(C(=O)c2c(Cl)cccc2Cl)cc1OC(F)F`, the melting point lay within 126 to 128 °C.

`O=C(C=Cc1cccc(-c2ccccc2)c1)Nc1ccc(CP2(=O)OCCCO2)cc1` registered a melting point of 204 to 205 °C. The figure for `C=CCc1cc2c(c(CC=C)c1O)N(CC=C)C(=O)CO2` is 71 to 73 °C.

In the case of `Cn1ncc2c1-c1c(Oc3cccnc3)sc(C(=O)O)c1CC2`, the melting point lay within 124 to 125 °C. The figure for `CCNc1c(C(=O)O)ccc(Br)c1OCC` is 129 to 139 °C. Consider `Cc1ccc(C(=O)COc2cc(C)cc(C)c2C)cc1`, for which the melting point was 94 to 95 °C.

With `N#Cc1c(N)nc2ccccc2c1Nc1cccs1`, the melting point fell in the range of 208 to 209 °C. As for `C/C(=C\c1ccc(C(=O)O)cc1)c1ccc2c(c1)C(C)(C)C=CC2(C)C`, the figure is 234 to 236 °C. The figure for `ClCCCn1ncc2cc(OCc3ccccc3)ccc21` is 65 to 66 °C; for `CSC(C(N)=O)c1ccccc1N` (centres undefined) it is 98.5 to 99.5 °C; for `CC(C)c1nc2c(s1)C(=O)N(c1cccc(C(F)(F)F)c1)C2=O` it is 80 °C.

The compound `O=c1[nH]c(=S)[nH]cc1Oc1cccnc1` came in with a melting point of 227 to 230 °C. The figure for `CCOC(=O)c1cccn2ccnc12` is 48 to 50 °C; for `c1ccc2c(c1)ccn2Nc1ncnc2c1ncn2-n1ccc2ccccc21` it is 196 to 198 °C. As for `CN1Cc2ccccc2C(Oc2ccc([N+](=O)[O-])cc2)C1` (centres undefined), the figure is 142 to 143 °C. The figure for `CCCCCCCCCCCCNC(=O)COc1ccc(/C=C/C(=O)C(F)(F)F)cc1` is 78.5 to 79 °C; for `CN=C(NOC)c1nn(-c2c(Cl)cc(C(F)(F)F)cc2Cl)c(N)c1S(C)=O` (centres undefined) it is 139 to 142 °C.

Compound `O=C(O)c1ccc(OCCCC2CCN(c3ccc(Cl)nn3)CC2)cc1` yielded a melting point of 209 °C. Compound `O=C(CNc1ccccc1)Nc1cc(F)c(F)cc1C(=O)O` had a melting point of 124 to 126 °C.

`O=C(CCc1cccnc1)NCCCCC1CCN(C(c2ccccc2)c2ccccc2)CC1` showed a melting point of 139 °C. Compound `COc1ccc(C(=O)NCCCC(=O)O)cc1OCc1ccccc1` displayed a melting point of 156 to 158 °C.

Take `CCN(CC)CCNC(=O)c1nc(Cl)c(NCCN(CC)CC)nc1OC`: the melting point was found to be 112 °C. The figure for `OC1CCN(c2ncc3ncnc(Nc4ccc(F)c(Cl)c4)c3n2)CC1` is 243 to 246 °C. Take `OC[C@@H]1CC[C@H](CO)O1`: the melting point was in the range of 128 to 129 °C. On to `CC(Nc1ccccc1)c1ccc(C(C)Nc2ccccc2)cc1` (centres undefined), for which the melting point lay in the range of 169 to 170 °C. As for `Cc1oc(-c2ccccc2)nc1CCOc1ccc(CC2SC(=O)NC2=O)c2sccc12` (centres undefined), the figure is 196 to 197 °C. As for `CN(C[C@H](O)[C@@H](O)[C@H](O)[C@H](O)CO)C(=O)CCCO`, the figure is 78 to 79 °C; as for `Cc1c(O)cccc1C(=O)N[C@@H](Cc1ccccc1)[C@H](O)C(=O)N1CSC(C)(C)[C@H]1C(=O)N[C@H]1C=CCCC1`, 193 to 195 °C. As for `O=C(O)C1=NC(c2ccc(Cl)cc2Cl)N(c2ccc(Cl)cc2)C1` (centres undefined), the figure is 150 to 151 °C; as for `O=C1Cc2ccccc2Sc2cc(C(F)(F)F)c(Cl)cc21`, 123 to 124 °C.

Consider `CN(CCN1CCN(c2ccc(C(F)(F)F)cc2)CC1)C[C@@]1(C)Cn2cc([N+](=O)[O-])nc2O1`, for which the melting point fell in the range of 148 to 150 °C. Regarding `CCCC(=O)NNC(=O)c1ccncc1`, the melting point stood at 142 °C. For the compound `CCOC(=O)CC1CCc2ccc(COc3ccc(C#N)cc3)cc2C1` (centres undefined), the melting point was 51 to 52 °C. The figure for `CCCc1nccn1-c1nc(-c2ccc(Cl)cc2)c(CCCOc2ccccc2OC)o1` is 89 to 90 °C; for `CCCCc1nc2ccn(Cc3ccc(N)cc3)c(=O)c2n1Cc1ccc(-c2ccccc2C#N)cc1` it is 223 °C; for `C=CCSc1nc(N)nc2c1ncn2[C@@H]1C[C@H](CO)[C@@H](O)C1` it is 133 to 134 °C. Turning to `CS(=O)(=O)Nc1ccc(Cn2ncc(Cl)c(Cl)c2=O)cc1`, the melting point lay in the range of 152 to 154 °C.

Consider `O=C(O)C1=CSC2CC(=O)N12` (centres undefined), for which the melting point was determined as 235 °C. As for `Clc1cc(Cl)cc(-c2nc(Cl)c3ccccc3n2)c1`, the melting point worked out at 274 °C. The figure for `CNc1nc(Cl)cc(NS(=O)(=O)c2ccccc2)n1` is 186 to 187 °C; for `CC(=O)N(O)Cc1ccccc1Nc1c(Cl)cccc1Cl` it is 165 to 171 °C. As for `CC(C)(C)NCC(O)COc1ccccc1CCCc1cccc2[nH]ccc12` (centres undefined), the figure is 96 °C; as for `COC(=O)CCCNC(=O)C[C@H]1O[C@H](c2cccc(OC)c2OC)c2cc(Cl)ccc2N(CC(C)(C)C)C1=O`, 74 to 75 °C; as for `CN1CC(NC(=S)NC(=O)c2ccccc2)CC2c3cccc4[nH]cc(c34)CC21` (centres undefined), 224 to 225 °C. The figure for `COC(=O)CC(CSC(C)=O)C(=O)O` (centres undefined) is 120 to 121 °C; for `Cn1cnc(COc2nn3c(-c4ccccc4F)nnc3cc2C2CCC2)c1` it is 176 °C. `COc1cccc(C(=O)c2cc3ccccc3[nH]2)c1`: the melting point was in the range of 119 to 121 °C. On to `O=C(c1ccc(O)cc1)c1oc2ccccc2c1-c1ccc(Cl)cc1`, for which the melting point is 220 to 221 °C. On to `CCC(Oc1ccc(-c2ccc(C#N)c(Cl)c2)cc1)C(O)CCc1cccnc1` (centres undefined), for which the melting point lay in the range of 99 to 100 °C.

Consider `COCCCC(=O)NNC(=O)N1Cc2ccccc2Oc2ccc(Cl)cc21`, for which the melting point fell in the range of 142 to 144 °C. `NCCCCCc1nc2ccccc2[nH]1` gave a melting point of 101 °C.

`CCCNC(=S)c1ccc2c(c1)N([C@H](C)CN1CCC[C@@H](C)C1)c1ccccc1S2` (racemic) showed a melting point of 126 °C. As for `COC1CCC(OS(=O)(=O)c2ccc(C)cc2)C(COS(=O)(=O)c2ccc(C)cc2)O1` (centres undefined), the figure is 110 to 112 °C; as for `Cc1ncnc2c(NC(=O)c3c(Cl)cccc3Cl)cccc12`, 223 to 225 °C; as for `CNc1ccc(C=CC(=O)N2CCc3c([nH]c4ccccc34)C2c2ccc3c(c2)CCO3)cn1` (centres undefined), 171 °C. As for `CN(CC(O)c1ccc(Cl)c(Cl)c1)C(=O)OC(C)(C)C` (centres undefined), the figure is 88 °C; as for `CCOC(=O)c1cn(C2CC2)c2c(F)c(F)c(F)c(CC)c2c1=O`, 139 to 140 °C. The figure for `CCc1nn(Cc2n[nH]c(=O)o2)c(CC)c1Oc1cc(Cl)cc(Cl)c1` is 138 to 142 °C; for `CNC(=S)C1(c2ccncc2)CCCCC1=O` (centres undefined) it is 182 to 183 °C. The compound `NC(=S)NNc1ccc(Cl)cc1` showed a melting point of 200 to 201 °C.

Consider `c1ccc(CSc2nc(SCc3ccccc3)n(-c3ncccn3)n2)cc1`, for which the melting point was 86 to 88 °C.

Turning to `Cc1ccc(C(=O)Nc2cc(Cl)c(O)c(Cl)c2)c(O)c1`, the melting point lay within 246 to 247 °C.

`COc1cc(-c2cnc3[nH]cc(C(=O)NCC(C)O)c3n2)cc(OC)c1OC` (centres undefined): the melting point is 202 to 203 °C. `CCn1cc(C(=O)O)c(=O)c2cc(F)c(Cl)cc21`: the melting point fell in the range of 279 to 281 °C. The figure for `COc1cccc(/C(=C\C=C\C(=O)NCCCCc2cccnc2)c2cccc(F)c2)c1` is 96 to 98 °C. As for `C=CCc1cccc(-c2nc3n(C4CCCC4)[nH]c(CC)c-3c(=O)n2)c1O`, the figure is greater than 280 °C; as for `COC(=O)C(=O)c1oc2cccc(OCc3ccc(F)cc3)c2c1O`, 138 to 141 °C; as for `Cc1ccc(S(=O)(=O)NC(Cc2ccccc2)C(=O)Nc2c(C(C)C)cccc2C(C)C)cc1` (centres undefined), 183 to 184 °C. The figure for `COc1cc(C)c(C=CC=CC=C(C)C(=O)O)c(C)c1C` is 179 to 180 °C; for `COc1ccccc1NC(=O)Nc1nc(Nc2ccc(-c3ccccc3)cc2)nc(N(CCC(=O)O)Cc2ccc(Cl)c(Cl)c2)n1` it is 215 to 220 °C. The compound `CCOC(=O)c1ccc2c(c1)N(CCN(C)C)C(=O)c1cc(C(C)C)cc(C(C)C)c1O2` displayed a melting point of 97 to 98 °C.

Regarding `CC(C)(OCc1nn(Cc2ccccc2)c2ccccc12)C(=O)NN`, the melting point lay in the range of 92 to 93 °C. `C#CCOC(=O)Oc1ccc(S(=O)(=O)c2ccc(OC(=O)OCC#C)cc2)cc1` came in with a melting point of 112 to 114 °C.

As for `CCn1ncc2c1ncc1c(SC)nc3cc(C)nn3c12`, the melting point was in the range of 168 to 169 °C. As for `C#CCOc1ccccc1-n1cnc2cc(Nc3nnc(C)c4ccccc34)ccc21`, the figure is 88 to 90 °C.

Usually melting point stands for the temperature, or range, at which the solid turns liquid.
